Measurements from patent publication US9856273B2, “ETP derivatives” (priority 2012, dated 2018).

Experiments:
[1] = tested on: Panc1 pancreatic cancer cell line; assay: MTS assay; assay type: cell-based; settings: Homo sapiens, PANC-1; Panc1, 48 h
Description: (§1) MTS Assay: Panc1, BxPC3, or SU.86.86 cells were seeded in a 96-well plate at a density of 7500 cells/well prior to treatment with increasing amounts of ETP69 or DMSO vehicle control. Forty-eight hours post treatment cells were incubated with the MTS substrate (CellTiter 96 AQueous One Solution Cell Proliferation Assay, Promega, Madison, Wis.) according to the manufacturer's instructions. The absorbance was measured at 490 nm using a 96-well plate reader (Synergy 4, Biotek), and the data were normalized to the absorbance of DMSO-treated cells. IC50 values were determined using GraphPad Prism's non-linear regression function. See FIGS. 11, 21, 22A, 22B, 23, 24A, 24B, 24C, 25A and 25B.

[2] = tested on: Su.86.86 pancreatic cancer cell line; assay: MTS assay; assay type: cell-based
Description: as §1

[3] = tested on: BxPC3 pancreatic cancer cell line; assay: MTS assay; assay type: cell-based
Description: as §1

[4] = tested on: Cyclin-dependent kinase inhibitor 1B p27(Kip1); assay: Western blot, induction of p27(Kip1); assay type: cell-based, human; settings: A2058, DU145, A549 and SKOV3 cells
Description: (§2) Induction of p16, p53, p21waf1 and p27 (FIGS. 8 and 9): Western blot analyses were performed with specific antibodies. Briefly, human A2058 melanoma, DU145 prostate, A549 non-small lung and SKOV3 ovarian cancer cells were treated with ETP69. Whole-cell lysates (40 […]g) were resolved by SDS-PAGE. Primary specific antibodies to p53, p21^WAF1, p27(Kip1), p16 and Actin were diluted in PBS (pH 7.5) with 5% (w/v) nonfat milk and 0.1% (v/v) Tween-20 over night at 4° C. Horseradish peroxidase-conjugated secondary antibodies were incubated in PBS (pH 7.5) with 5% (w/v) nonfat milk and 0.1% (v/v) Tween-20 for 1 h at room temperature. Positive immuno-reactive proteins were detected using the ECL system (Pierce, Rockford, Ill.).

[5] = tested on: H3K9 trimethylation; assay: Western blot of histone H3 (trimethyl K9) in A2058 melanoma cells; assay type: cell-based, human
Description: as §2, with “Western” for “Induction of p16, p53, p21waf1 and p27 (FIGS. 8 and 9): Western”, “[…]g) or histone extracts (10 […]g)” for “[…]g)”, “histone H3” for “p53, p21^WAF1, p27(Kip1), p16”, “histone H3 (trimethyl K9) were incubated in PBS (pH 7.5) with 0.1% (v/v) Tween-20 and 5% (w/v) BSA with gentle agitation overnight at 4° C. Other specific antibodies” for “Actin”

[6] = tested on: HepG2 hepatocellular carcinoma cells; assay: MTS cell viability assay; assay type: cell-based; settings: Homo sapiens
[7] = Toxicity on intraperitoneal injection or oral administration; settings: up to 20 mg/kg, intraperitoneal injection (IP) or oral administration
[8] = tested on: A2058 melanoma SQ xenografts; assay type: in vivo, mouse; settings: A2058 xenograft, 20 mg/kg IP once daily for 13 days
Description: In Vivo Xenograft Procedures for Lung Cancer, Melanoma, and Ovarian Cancer (See FIGS. 15A, 15B, 16A, 16B, 17A, 17B, 18A and 18B): Human A2058 melanoma cells (3×10^6) were resuspended in serum-free RPMI1640 medium and subcutaneously injected into the flank of 5-6 weeks old Athymic female nude mouse (NCI). When palpable tumor sizes reached at approximately 100 mm^3, mice were divided into two groups (vehicle=5, treatment=5). Then, ETP69 was administered with intraperitoneal (IP) injection at 20 mg/kg with vehicle (10% DMSO+0.5% Teen 20+89.5% saline), once daily for 13 days. Tumor volumes were calculated by the formula 1/2a×b^2, where a is the long diameter, and b is the short diameter. Tumor volumes correlate with tumor weights. The statistical significance of group differences was analyzed using a Student's t-test with the two-tailed distribution. P values less than 0.05 were considered statistically significant.

[9] = tested on: MV4-11 AML cells; assay: MTS cell viability assay; assay type: cell-based; settings: Homo sapiens
Description: (§3) IC50 Determinations for Ovarian, Liver, Pancreatic, CML, AML Cancer Cell Lines (See e.g. FIGS. 4, 6A-6C, 21, 22A, 22B, 23, 24A-24C, 25A, 25B and 34): MTS assays were performed for cell viability. SKOV3 ovarian cancer, Huh-7 hepatocellular carcinoma, MIA-PaCa2 pancreatic cancer, KCL-22 CML, T315I mutant KCL-22 CML, MOLM-13 AML and MV4-11 AML cells were seeded in 96-well plates (5000 cells/well for solid tumors, 10000 cells/well for blood tumors), incubated overnight at 37° C. in 5% CO2, and exposed to racemic ETP69 or S enantiomer in a dose-dependent manner for 48 h. Dimethyl sulfoxide (DMSO) was used as the vehicle control. Viable cell numbers were determined by tetrazolium conversion to its formazan dye and absorbance was measured at 490 nm using an automated ELISA plate reader. Each experiment was performed in quadruplicate.

[10] = tested on: Huh-7 hepatocellular carcinoma cells; assay: MTS cell viability assay; assay type: cell-based; settings: Homo sapiens
Description: as §3

[11] = tested on: T315I mutant KCL-22 CML cells; assay: MTS cell viability assay; assay type: cell-based; settings: Homo sapiens
Description: as §3

[12] = tested on: KCL-22 CML cells; assay: MTS cell viability assay; assay type: cell-based; settings: Homo sapiens
Description: as §3

## CN1C(=O)[C@@]23C[C@](C)(C#N)[C@H](c4ccc5c(c4)OCO5)N2C(=O)[C@]1(C)SS3 (racemic) [ETP69, Rac-(3S,6S,7S,8aS)-6-(Benzo[d][1,3]dioxol-5-yl)-2,3,7-trimethyl-1,4-dioxohexahydro-6H-3,8a-epidithiopyrrolo[1,2-a]pyrazine-7-carbonitrile]
[1]
  IC50: 824 nM
[2]; Homo sapiens, SU.86.86, 48 h
  IC50: 86 nM
[2]; SU86.86, 100 nM to 1000 nM
  killing of cells: significant killing
[3]; BxPC3, 100 nM to 1000 nM
  killing of cells: significant killing
[3]; Homo sapiens, BXPC-3, BxPC3, 48 h
  IC50: 210 nM
[4]
  induction of p27(Kip1): induces
[5]
  inhibition of H3K9 trimethylation: inhibition
[6]
  IC50: 13.8 nM
[7]
  toxicity: no significant toxicity
[8]
  toxicity symptoms: no observable toxicity symptoms
  tumor volume: decreased
  tumor weight: decreased
[9]
  IC50: 1.8 nM
[10]
  IC50: 3.3 nM
[11]
  IC50: 170 nM
[12]
  IC50: 180 nM
